Values of other authors as cited in patent US9222055B2, “High intensity fragrances” (TAKASAGO INTERNATIONAL CORPORATION, priority 2009, dated 2015).
Like-named read-outs stand apart in the source and are kept apart here.

Experiments:
[1] = Table 1, measured value where available
[2] = for Readily biodegradable: Table 1
[3] = evidence from prior art
[4] = Table 19, ingredients of Comparative Fragrance K
[5] = Table 18, ingredients of Comparative Fragrance J

For `CC1=CCC(O)(C(C)C)CC1` (stereo not shown) [1-terpinen-4-ol], the LogP [1] is given as 3.26 and the Readily biodegradable [2] is given as “No”.
For `CC(C)CC1CC(C)(O)CCO1` (stereo not shown) [2-isobutyl-4-methyltetrahydro-2H-pyran-4-ol], the Bio-Degradable [2, 4] is listed as “No”.
In the case of `C=CCOC(=O)CCCCC` [ALLYL HEXANOATE, allyl hexanoate], the Readily biodegradable [2] is given as “Yes”.
In the case of `COc1ccc(C=O)cc1` [ANISIC ALDEHYDE, anisic aldehyde], the Readily biodegradable [2] is given as “Yes”.
For `CC(=O)/C=C/C1C(C)=CCCC1(C)C` (stereo not drawn) [Alpha ionone], the Bio-Degradable [2, 4] is listed as “No”.
In the case of `CCCCC/C(C=O)=C/c1ccccc1` [Amyl cinnamic aldehyde], the allergen classification [3] is listed as “strong allergens”.
In the case of `CC(=O)OCc1ccccc1` [BENZYL ACETATE, benzyl acetate], the biodegradability classification ([2]; OECD 301B or OECD 301F, Test Plan for Benzyl Derivatives) is given as “readily biodegradable”, the Readily biodegradable [2] is given as “Yes” and the Bio-Degradable [2, 4] is given as “Yes”.
In the case of `OCc1ccccc1` [BENZYL ALCOHOL, benzyl alcohol], the Readily biodegradable [2] is given as “Yes”.
In the case of `CCCCOC(C)=O` [BUTYL ACETATE, butyl acetate], the LogP [1] is given as 1.78 and the Readily biodegradable [2] is given as “Yes”.
For `O=C(OCc1ccccc1)c1ccccc1O` [Benzyl Salicylate], the Bio-Degradable [2, 5] is listed as “No”.
For `OC/C=C/c1ccccc1` [CINNAMIC ALCOHOL, cinnamic alcohol], the LogP [1] is listed as 1.95, the Readily biodegradable [2] is listed as “Yes” and the allergen classification [3] is listed as “strong allergens”.
For `O=C/C=C/c1ccccc1` [CINNAMIC ALDEHYDE, cinnamic aldehyde], the Readily biodegradable [2] is given as “Yes” and the allergen classification [3] is given as “strong allergens”.
For `CC/C=C\CCOC(C)=O` [CIS-3-HEXENYL ACETATE, cis-3-hexenyl acetate], the LogP [1] is listed as 2.34 and the Readily biodegradable [2] is listed as “Yes”.
For `CC/C=C\CCOC(=O)CC` [CIS-3-HEXENYL PROPIONATE, cis-3-hexenyl propionate], the Readily biodegradable [2] is listed as “Yes”.
For `CC(C)=CCCC(C)=CC=O` [CITRAL, citral], the biodegradability classification ([2]; OECD 301B, The Terpene Consortium Robust Summary) is listed as “readily biodegradable”, the Readily biodegradable [2] is listed as “Yes” and the allergen classification [3] is listed as “strong allergens”.
For `CC(C)=CCCC(C)CCO` (stereo not shown) [CITRONELLOL, citronellol], the biodegradability classification ([2]; OECD 301F, The Terpene Consortium Robust Summary) is listed as “readily biodegradable” and the Readily biodegradable [2] is listed as “Yes”.
In the case of `COc1ccc(C)cc1` [Cresyl methyl ether], the Bio-Degradable [2, 4] is listed as “Yes”.
In the case of `CCCCCCC1CCC(=O)O1` (stereo not shown) [DECALACTONE GAMMA, decalactone gamma], the LogP [1] is listed as 2.72 and the Readily biodegradable [2] is listed as “Yes”.
In the case of `CCCc1ccc(O)c(OC)c1` [Dihydroeugenol], the Bio-Degradable [2, 4] is listed as “No”.
For `CCCC(=O)OC(C)(C)Cc1ccccc1` [Dimethyl benzyl carbonyl butyrate], the Bio-Degradable [2, 5] is listed as “No”.
In the case of `CCCCCCCCCCCC=O` [Dodecanal], the Bio-Degradable [2, 4] is listed as “Yes”.
For `CCCC(=O)OCC` [ETHYL BUTYRATE, ethyl butyrate], the LogP [1] is given as 1.73 and the Readily biodegradable [2] is given as “Yes”.
For `CCCCCC(=O)OCC` [ETHYL CAPROATE, ethyl caproate], the Readily biodegradable [2] is given as “Yes”.
For `CCCCCCCC(=O)OCC` [ETHYL CAPRYLATE, ethyl caprylate], the Readily biodegradable [2] is listed as “Yes”.
For `CCCCCCC(=O)OCC` [ETHYL HEPTANOTE, ethyl heptanoate], the Readily biodegradable [2] is given as “Yes”.
For `CCOC(=O)CC` [ETHYL PROPIONATE, ethyl propionate], the LogP [1] is listed as 1.21 and the Readily biodegradable [2] is listed as “Yes”.
In the case of `CCOC(=O)CC(C)=O` [Ethyl acetoaceteate], the Bio-Degradable [2, 4] is given as “Yes”.
In the case of `CCOC(=O)C12CCCC1C1CCC2C1` (stereo not shown) [Ethyl tricyclodecan-2-carboxylate], the Bio-Degradable [2, 5] is listed as “No”.
In the case of `O=C1CCCCCCCCCCCC(=O)OCCO1` [Ethylene brassylate], the Bio-Degradable [2, 5] is given as “Yes” and the Bio-Degradable [2, 4] is given as “Yes”.
For `CC(=O)/C(C)=C/C1C(C)=CCCC1(C)C` (stereo not shown) [Gamma methyl ionone], the Bio-Degradable [2, 4] is listed as “No”.
In the case of `O=Cc1ccc2c(c1)OCO2` [HELIOTROPINE, heliotropine], the LogP [1] is listed as 1.05.
In the case of `CCCCCCOC(C)=O` [HEXYL ACETATE, hexyl acetate], the Readily biodegradable [2] is listed as “Yes”.
In the case of `CCCCCCC(C=O)=Cc1ccccc1` [Hexyl Cinnamic Aldehyde], the Bio-Degradable [2, 5] is listed as “Yes”.
For `CCCCCCOC(=O)c1ccccc1O` [Hexyl salicylate], the Bio-Degradable [2, 4] is listed as “Yes”.
For `CC(=O)OCCC(C)C` [ISOAMYL ACETATE, isoamyl acetate], the LogP [1] is given as 2.25 and the Readily biodegradable [2] is given as “Yes”.
In the case of `CC(C)[C@@H]1CC[C@@H](C)C[C@H]1O` [L-MENTHOL, L-menthol], the Readily biodegradable [2] is listed as “No”.
In the case of `C=C(C)[C@H]1CC=C(C)CC1` [LIMONENE, limonene], the LogP [1] is given as 4.57 and the Readily biodegradable [2] is given as “No”.
In the case of `C=CC(C)(O)CCC=C(C)C` (stereo not shown) [LINALOOL, linalool], the Readily biodegradable [2] is given as “No”, the Bio-Degradable [2, 5] is given as “No” and the Bio-Degradable [2, 4] is given as “No”.
In the case of `C=CC(C)(CCC=C(C)C)OC(C)=O` (stereo not shown) [Linalyl acetate], the Bio-Degradable [2, 4] is given as “No”.
For `COC(=O)c1ccccc1N` [METHYL ANTHRANILATE, methyl anthranilate], the Readily biodegradable [2] is listed as “Med”.
In the case of `COC(=O)c1ccccc1O` [METHYL SALICYLATE, methyl salicylate], the Readily biodegradable [2] is listed as “Yes”.
For `CCCCCC1C(=O)CCC1CC(=O)OC` (stereo not shown) [Methyldihydrojasmonate], the Bio-Degradable [2, 4] is given as “Yes”.
In the case of `CCCCC1CCC(=O)O1` (stereo not shown) [OCTALACTONE, GAMMA, octalactone gamma], the Readily biodegradable [2] is given as “Yes”.
For `CC(=O)OCCc1ccccc1` [PHENYLETHYL ACETATE, 2-phenylethyl acetate], the LogP [1] is given as 2.30 and the Readily biodegradable [2] is given as “Yes”.
In the case of `OCCc1ccccc1` [PHENYLETHYL ALCOHOL, 2-phenylethylalcohol], the Readily biodegradable [2] is given as “Yes” and the Bio-Degradable [2, 4] is given as “Yes”.
For `CC(C=O)Cc1ccc(C(C)(C)C)cc1` (stereo not drawn) [Para tert-butyl-alpha Methyl hydrocinnamic Aldehyde], the Bio-Degradable [2, 5] is given as “No” and the allergen classification [3] is given as “strong allergens”.
In the case of `CC1=CCC(C(C)(C)O)CC1` (stereo not drawn) [TERPINEOL, ALPHA, alpha-terpineol], the LogP [1] is given as 2.98 and the Readily biodegradable [2] is given as “No”.
In the case of `CCC/C=C/C=O` [TRANS-2-HEXENAL, trans-2-hexenal], the Readily biodegradable [2] is given as “Yes”.
In the case of `CCCCCC1COCCC1OC(C)=O` (stereo not shown) [Tetrahydro-3-penthyl-2H-pyran-4-yl acetate], the Bio-Degradable [2, 5] is given as “Yes”.
In the case of `C=CCCCCCCCCC=O` [Undecelenic aldehyde], the Bio-Degradable [2, 4] is listed as “Yes”.
For `COc1cc(C=O)ccc1O` [VANILLIN, vanillin], the Readily biodegradable [2] is listed as “Yes” and the Bio-Degradable [2, 4] is listed as “Yes”.
For `Cc1occc(=O)c1O` [VELTOL ™, 3-hydroxy-2-methyl-4-pyrone], the Readily biodegradable [2] is listed as “Yes”.
For `CC(C)=CCCC(C)=CCCC(C)=CCO` [farnesol], the allergen classification [3] is given as “strong allergens”.
For `CC=Cc1ccc(O)c(OC)c1` [isoeugenol], the allergen classification [3] is listed as “strong allergens”.
In the case of `CCCCCOC(C)=O` [n-AMYL ACETATE, n-amyl acetate], the LogP [1] is listed as 2.30 and the Readily biodegradable [2] is listed as “Yes”.
For `CCCCCOC(=O)CC` [n-AMYL PROPIONATE, n-amyl propionate], the LogP [1] is listed as 2.66 and the Readily biodegradable [2] is listed as “Yes”.
